Assay results from the supplement of paper PMC5412046.
Where a name gives a salt, the structure may show the parent alone.

test system: SB.msgc-1; assay: AC50 for growth inhibition (viability) (log10 M); higher = less potent; conditions: SB.msgc-1 (sporadic gastric cancer)
Outline: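 A four-parameter fit of viability, normalised to DMSO, gave the log half-maximal activity concentration, and only high-quality curve classes were kept. Cells came from hereditary or sporadic gastric cancer patients, 500 per 1536 well, and were dosed for 48 h at 11 threefold dilutions from a final 46 μM. Readout was CellTiter-Glo luminescence on a ViewLux.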

| SMILES | AC50 for growth inhibition (log10 M) |
| --- | --- |
| Nc1nc(NCCNc2ncc(-n3ccnc3)c(-c3ccc(Cl)cc3Cl)n2)ccc1[N+](=O)[O-] | -5.68 |
| Cc1cnc(Nc2cccc(CN3CCOCC3)c2)nc1Nc1cccc([S+](=O)([O-])NC(C)(C)C)c1 [TG-89] | -4.78 |
| COc1cc2c(Nc3ccc(NC(=O)c4ccccc4)cc3)ncnc2cc1OCCCN1CCOCC1 | -4.83 |
| CC(C)(C)OC(=O)CN(Cc1ccc(Cl)cc1)Cc1ccc([N+](=O)[O-])s1 [GSK-4112] | -4.68 |
| O=[N+]([O-])c1ccc(Nc2ccccc2-c2ccccc2)c2nonc12 | -4.53 |
| C/C=C/C(=O)N(CC)c1ccccc1C [Crotamiton] | -4.98 |
| COc1ccc2c(c1)CN(C)CC2c1ccc(Cl)c(Cl)c1 (stereo not drawn) [Diclofensine] | -4.73 |
| NCCCC(N)(C(=O)O)C(F)F (stereo not drawn) [Eflornithine Hydrochloride] | -4.78 |
| C[C@@H]1CCO[C@H]2CN\3/C=C(/C(=O)NCC4=C(F)C=C(F)C=C4)C(=O)\C(=C3C(=O)N12)O [Dolutegravir] | -4.78 |
| CC(C)(C)OC(=O)Nc1ccc(-c2cc(C(=O)NCCCCCCC(=O)NO)no2)cc1 [ISOX] | -5.58 |
| CC(=O)N1CCN(c2ccc(OC[C@H]3CO[C@](Cn4ccnc4)(c4ccc(Cl)cc4Cl)O3)cc2)CC1 [Ketoconazole] | -4.83 |
| CC(C)(OCc1nn(Cc2ccccc2)c2ccccc12)C(=O)O [Bindarit] | -5.08 |
| CC1(COc2ccc3c(c2)ncn3-c2ccc3cccc(N4CCC(N)CC4)c3n2)COC1 [Crenolanib] | -7.38 |
| CC1CCN(c2cc(N3CCN(C)CC3)ccc2NC(=O)c2cc(C#N)c[nH]2)CC1 [c-FMS inhibitor] | -4.68 |
| NC(=O)C1CCCc2c1[nH]c1ccc(Cl)cc21 (stereo not drawn) [EX-527] | -4.78 |
| CCCNC(=O)Nc1ccc(Oc2ncnc3cc(OC)c(OC)cc23)cc1Cl [KRN-633] | -4.68 |
| CC(C)(C)C1=NC2=C([NH]1)C3=CC=C(F)C=C3C4=C2\C=C/NC4=O [Merck 5] | -5.33 |
| O=C1Cc2cc(CCN3CCN(c4nsc5ccccc45)CC3)c(Cl)cc2N1 [Ziprasidone hydrochloride] | -4.63 |
| CN(C)CCCC1(c2ccc(F)cc2)OCc2cc(C#N)ccc21 (stereo not drawn) [Citalopram hydrobromide] | -4.83 |
| Cn1cc(-c2ccncc2)c(-c2ccc(OCc3ccc4ccccc4n3)cc2)n1 [MP-10] | -5.13 |
| Cc1ccc(NC(=O)c2ccc(CN3CCN(C)CC3)cc2)cc1Nc1nc(-c2cccnc2)cs1 [Masitinib] | -4.93 |
| C[C@H](c1ccc(F)cc1CCCC(=O)O)N(c1cc(F)ccc1F)[S+](=O)([O-])c1ccc(Cl)cc1 | -4.78 |
| O=C(Nc1cccc(C(F)(F)F)c1)Nc1cc([S+](=O)([O-])NC2CC2)ccc1-c1ccsc1 [AGI-6780] | -4.73 |

| SMILES | AC50 for growth inhibition (log10 M) |
| --- | --- |
| CN(C)CCOc1ccc(-c2nc(-c3ccncc3)c(-c3ccc4c(c3)CC/C4=N\O)[nH]2)cc1 | -4.68 |
| COC[C@H]1OC(=O)C2=COC3=C2[C@@]1(C)\C4=C(C5CCC(=O)[C@@]5(C)C[C@H]4OC(C)=O)/C3=O (stereo partly drawn) [Wortmannin] | -4.83 |
| Clc1ccc(C(c2ccc(Cl)cc2)[n+]2ccn(CC(OCc3ccc(Cl)cc3Cl)c3ccc(Cl)cc3Cl)c2)cc1 (stereo not drawn) [Calmidazolium chloride] | -4.68 |
| COC1=CC=C2[C@H]3CC[C@]4(C)[C@H](CC[C@H]4[C@@H]3CCC2=C1)NCCCCCCN5C(=O)\C=C/C5=O | -4.73 |
| COc1cc(Nc2c(C#N)cnc3cc(OCCCN4CCN(C)CC4)c(OC)cc23)c(Cl)cc1Cl [Bosutinib] | -5.58 |
| CCC(C)(C)C(=O)O[C@H]1C[C@@H](C)\C=C2\C=C/[C@H](C)[C@H](CC[C@@H]3C[C@@H](O)CC(=O)O3)[C@@H]12 [Simvastatin] | -4.78 |
| c1cc(N[C@@H]2CCNC2)nc(-c2cnc3ccc(-c4cn[nH]c4)cn23)c1 | -4.68 |
| FC1=CC=C(SC/2=N/N3\C=N/C(=O)/C(=C3/C=C2)C4=C(Cl)C=CC=C4Cl)C(=C1)F [VX-745] | -4.73 |
| CC1=C2N=C([NH]C2=CC(=C1)N3CCOCC3)\C4=C(NC[C@@H](O)C5=CC=CC(=C5)Cl)\C=C/NC4=O | -5.78 |
| CC1(C)Cc2c(-c3ccccc3)c(-c3ccc(Cl)cc3)c(CC(=O)O)n2C1 [Licofelone] | -4.73 |
| O=C(O)CCCc1ccc(N(CCCl)CCCl)cc1 [Chlorambucil] | -5.33 |
| COc1cc([C@@H]2c3cc4c(cc3[C@H](O)[C@H]3COC(=O)[C@H]23)OCO4)cc(OC)c1OC [Picropodophyllin] | -8.43 |
| Cc1cc(OCCC[S+](C)(=O)[O-])cc(C)c1-c1cccc(COc2ccc3c(c2)OC[C@H]3CC(=O)O)c1 [TAK-875] | -4.78 |
| CC(C)CC(N(C)C)C1(c2ccc(Cl)cc2)CCC1 (stereo not drawn) [Sibutramine hydrochloride] | -4.73 |
| CCCCCCCCCCCC/1=C(O)/C(=O)/C=C(O)\C1=O [Embelin] | -6.03 |
| Nc1nc(N)c2nc(CNc3ccc(C(=O)NC(CCC(=O)O)C(=O)O)cc3)cnc2n1 (stereo not drawn) [Aminopterin] | -7.63 |
| Oc1ccc(C2CCN(c3ccnc4ccccc34)CC2)cc1O | -4.63 |
| O=C(O)Cn1nnc(-c2cc(N3CCC(Oc4cc(F)ccc4Br)CC3)no2)n1 [MK-8245] | -5.48 |
| CNC(=O)c1ccc2c(c1)NC(=O)/C2=C(\Nc1cccc(CN(C)C)c1)c1ccccc1 | -4.93 |
| O=C(O)/C=C/c1ccc(O)c(O)c1 [Caffeic acid] | -4.88 |
| Cc1ccc(C(N)=O)cc1Nc1nccc(-c2cn(C(C)C)c3cnccc23)n1 | -5.28 |
| CC(=O)NC(C)c1ccc(Oc2ccc(OC(C)C)cc2)cc1 (stereo not drawn) [ACC1 BMS] | -4.73 |
| CC(C)(C)c1cnc(CSc2cnc(NC(=O)C3CCNCC3)s2)o1 [SNS-032] | -7.18 |

| SMILES | AC50 for growth inhibition (log10 M) |
| --- | --- |
| COC(=O)Nc1nc2cc(C(=O)c3ccccc3)ccc2[nH]1 [Mebendazole] | -5.48 |
| Cc1c(CN2CCN([S+](C)(=O)[O-])CC2)sc2c(N3CCOCC3)nc(-c3cnc(N)nc3)nc12 [GNE-477] | -7.68 |
| O=C(Nc1ccccc1)Nc1ccc(-c2ccc(C(=O)[C@@H]3CCC[C@H]3C(=O)O)cc2)cc1 | -4.63 |
| CN(C)C1=C(Br)C=C(C=C1)C\2NC3=C(\C4=C2C(=O)CC(C)(C)C4)C5=CC=CC=C5C=C3 (stereo not drawn) [GLS968] | -5.23 |
| O=C(O)c1ccc(-n2nc(-c3ccccc3O)nc2-c2ccccc2O)cc1 [Deferasirox] | -4.93 |
| Cc1cccc(CN2CCN(C(c3ccccc3)c3ccc(Cl)cc3)CC2)c1 (stereo not drawn) [Meclizine hydrochloride] | -4.68 |
| CN1\N=C(N)/C2=C[N]([C@@H]3O[C@H](CO[P](O)(O)=O)[C@@H](O)[C@H]3O)C4=C2C1=NC=N4 [Triciribine phosphate] | -6.53 |
| O=C1Nc2ccc(I)cc2/C1=C/c1cc(Br)c(O)c(Br)c1 [GW-5074] | -4.93 |
| NC(=O)c1nnn(Cc2cc(Cl)c(C(=O)c3ccc(Cl)cc3)c(Cl)c2)c1N [Carboxyamidotriazole] | -5.03 |
| CC(C)(C)[C@]1(O)C[C@@H]2OC(=O)C[C@@]23C(=O)O[C@@H]2OC(=O)[C@H](O)C213 (stereo partly drawn) [Bilobalide] | -4.93 |
| N#CC[C@H](C1CCCC1)n1cc(-c2ncnc3[nH]ccc23)cn1 [Ruxolitinib] | -4.73 |
| CCCCC[C@H](O)/C=C/[C@H]1[C@H](O)CC(=O)[C@@H]1C/C=C\CCCC(=O)O [Prostaglandin E2] | -5.18 |
| COCC(=O)NC/C=C/c1ccc2ncnc(Nc3ccc(Oc4ccc(C)nc4)c(C)c3)c2c1 | -6.58 |
| N#C[C@@H]1C[C@@H]2C[C@@H]2N1C(=O)[C@@H](N)C12CC3CC(CC(O)(C3)C1)C2 [Saxagliptin] | -4.98 |
| c1ccc2c(Oc3nc(Nc4ccc(N5CCOCC5)cc4)c4ncn(C5CCCCC5)c4n3)cccc2c1 [purmorphamine] | -4.98 |
| CC(C)c1ccc(Cn2ccc3c4c(N)nc(NC5CC5)nc4ccc32)cc1 | -5.78 |
| Cc1nc(Nc2ncc(C(=O)Nc3c(C)cccc3Cl)s2)cc(N2CCN(CCO)CC2)n1 [Dasatinib] | -5.73 |
| N=C(CCSCc1csc(N=C(N)N)n1)N[S+](N)(=O)[O-] [Famotidine] | -4.78 |
| CS[C@H]1SC[C@@H]2C(=O)N(C)[C@H](C(C)C)C(=O)OC[C@H](NC(=O)c3cnc4ccccc4n3)C(=O)N[C@H](C)C(=O)N(C)[C@H]1C(=O)N(C)[C@H](C(C)C)C(=O)OC[C@H](NC(=O)c1cnc3ccccc3n1)C(=O)N[C@H](C)C(=O)N2C [Echinomycin] | -8.33 |
| CC(C)CC(=O)Nc1n[nH]c2c1CN(C(=O)C1CCN(C)CC1)C2(C)C | -5.83 |
| CCC[S+](=O)([O-])Nc1ccc(F)c(C(=O)c2c[nH]c3ncc(Cl)cc23)c1F [PLX-4720] | -4.83 |
| C[C@H](NCc1ccc2c(c1)nc(NC(=O)c1ccc(-c3cn[nH]c3)s1)n2CCc1ccccc1)C(C)(C)C | -6.03 |
